Measured values reported in patent US11628186B2, “Method and composition for the reduction of viral replication, duration and spread of the COVID-19 and the flu” (priority 2017, dated 2023).
Where “and” joins values, the source holds several entries; their conditions need not be identical. Equal entries are not always repeated.

Tests used:
[1] = tested on: patients with lung diseases including COPD; test: Comparison of inhaled salts of pyruvate, 5 ml of 0.5 mM solution (Table I)
Method: All previous studies using pyruvate to treat Allergic Rhinitis, Asthmatic and COPD patients used only the sodium salt form of pyruvic acid in saline. The drug products that were tested in the six Phase I/II clinical trial were differing concentrations of sodium pyruvate dissolved in 0.9% sodium chloride solution (Saline). These drug products contained 0.5 mM, 1.5 mM, or 5.0 mM of sodium pyruvate in physiological saline. They were administered to normal volunteers and COPD and asthmatics by inhalation therapy. […] Various sodium pyruvate solutions were evaluated in the lungs for their ability to enhance FEV1 values and reduce coughing, and lung tightness.
The amount of the salts delivered in the 5 ml's of the 0.5 mM pyruvate solutions were compared to the amounts of the salts in 5 ml's of human blood. […] When ethyl pyruvate reacts with oxygen radical like hydrogen peroxide, it is converted to ethane and alcohol and Co2 and acetate. Ethane and alcohol are lung irritants.
This formula can also be made by adding 3% calcium phosphate or dicalcium phosphate to the standard 0.5 mM to 30 mM sodium pyruvate saline solution see Table I.

[2] = tested on: patients with chronic Hypoxemia; test: Various drugs with or without pre-inhaled pyruvate formulas (Table VII); type: in vivo, human; design: SaO2 Measurements taken after medication and compared to baseline / SaO2 Measurements taken after taking the medication and compared to baseline: unit not given here
Method: With the hundreds of patients tested in our various clinical trials, data was gathered as to the type of medications the patients used and the frequency of their use over a six-month period. The patients were asked to rate their medications form 1-10 with 1 being the most irritating with the most side effects and 10 being the best with no irritation and no side effects. In these clinical trials, various drugs were evaluated for irritation, mucus production, and efficacy in humans. The drugs were all evaluated using their current formulations and concentrations against the same formulations with the addition of sodium pyruvate, with the calcium, phosphate and magnesium formula given just prior to the use of their medications. They were instructed to 20 inhale this formula just prior to the use of their medications and to evaluate the effect of their medications on the 1-10 scale.
Patients on the various inhaled medications whether inhaled or taken orally or by IV infusion, were enlisted in the evaluation of the inhaled sodium pyruvate calcium, phosphate and magnesium formula. The patients were tested for their SaO2 levels and those that had SaO2 levels below 92% were asked to enlist in the study. […] After the SaO2 levels were determined prior to and one hour after taking their medications, the patients returned the following day, SaO2 measurements were taken one hour prior to taking their medications. The patients were then handed the hypotonic inhalation formula of sodium pyruvate with calcium, phosphate magnesium formula and instructed to inhale it one hour before taking their medications, SaO2 measurements were then taken one hour after taking their medications.

[3] = Drug in commercial formula taken in prescribed way
[4] = Drug in commercial formula with Pre-inhaled sodium pyruvate, calcium & phosphate & magnesium
[5] = Drug in commercial formula with pre-inhaled sodium pyruvate saline only
[6] = Drugs commercial formula given as instructed in the package
[7] = Drugs in commercial formula Pre-inhaled sodium pyruvate & calcium & phosphate & magnesium
[8] = Drugs in commercial formula with pre-inhaled sodium pyruvate in saline only

Compound | FEV1 ([1]; 5 mls of a 0.5 mM pyruvate inhalation solution in COPD and asthmatic patients) | Irritation ([1]; in vivo) | SaO2 Measurements taken after medication and compared to baseline [2, 3] | SaO2 measurements taken after taking medication and compared to baseline [2, 4] | SaO2 Measurements taken after taking the medication and compared to baseline [2, 5] | Lung functions (rating 1-10) [2, 6] | Lung functions (rating 1-10) [2, 7] | Lung functions (rating 1-10) [2, 8] | Lung functions (rating 1-10) ([2]; in vivo) | SaO2 Measurements taken after medication and compared to baseline ([2]; in vivo) | SaO2 Measurements taken after taking the medication and compared to baseline ([2]; in vivo) | SaO2 measurements taken after taking medication and compared to baseline ([2]; in vivo)
CCOC(=O)C(C)=O [ethyl pyruvate, reference compound] | did not increase FEV-1 | irritating | – | – | – | – | – | – | – | – | – | –
O=C(O)c1cc(=O)c2c(OCC(O)COc3cccc4oc(C(=O)O)cc(=O)c34)cccc2o1 [Cromoglycate] | – | – | 0 | +5 | 0 | 3 | 7 | 6 | – | – | – | –
C[C@H]1[C@H](NC(=O)/C(=N\OC(C)(C)C(=O)O)c2csc(N)n2)C(=O)N1S(=O)(=O)O [Aztreonam] | – | – | −1 | +4 | 0 | 8 | 7 | 8 | – | – | – | –
CNC[C@H](O)c1ccc(O)c(O)c1 [Epinephrine] | – | – | – | – | – | – | – | – | 3 and 4 and 5 | +1 | 0 | +6
NC[C@H]1O[C@H](O[C@H]2[C@H](O)[C@@H](O[C@H]3O[C@H](CO)[C@@H](O)[C@H](N)[C@H]3O)[C@H](N)C[C@@H]2N)[C@H](N)C[C@@H]1O [Tobramycin] | – | – | −2 | +3 | 0 | 5 | 6 | 5 | – | – | – | –
Insulin | – | – | −2 | +4 | +1 | 5 | 7 | 6 | – | – | – | –
Oc1ccc2c(c1)[C@@]13CCCC[C@@]1(O)[C@@H](C2)N(CC1CCC1)CC3 [Butorphanol] | – | – | −2 | 0 | 0 | 6 | 9 | 7 | – | – | – | –
Levorphanol Tartrate | – | – | −6 | +6 | +1 | 2 | 8 | 6 | – | – | – | –
